Literature values in PubChem BioAssay AID1259409 (Chemical Carcinogenesis Research Information System (CCRIS), 2018).

Test system: rodent chemically induced tumor inhibition, incidence and multiplicity
Assay: CCRIS tumor inhibitor studies

C=CC1=C(C)C2=CC3=NC(=C(CC(=O)O)C4=NC(=C(C)C4=C(O)O)C=c4[nH]c(c(C)c4CC)=CC1=N2)C(CCC(=O)O)C3C (stereo not given)
outcome (Carcinogen: 2-AMINO-3-METHYLIMIDAZO[4,5-F]QUINOLINE [76180-96-6], Dose [Inhibitor]: 0, 0.01% (W/V BASED ON TOTAL CHLORINS) IN DRINKING WATER BEGINNING 1 WK POST CARCINOGEN TREATMENT FOR THE DURATION STUDY, Route [Inhibitor]: ORAL, Species: RAT, Strain/Sex: F344/MALE, Target Tissue: Type of Lesion: SMALL INTESTINE: TUMOR, Dose [Carcinogen]: 0.03% IN DIET FOR FIRST 5 WK (STUDY DURATION: 52 WK), Promoter: NONE): 0/22 (0%), 2/20 (10%), -%, not significant
tumour outcome (control, treated, inhibition, significance) (Carcinogen: 2-AMINO-3-METHYLIMIDAZO[4,5-F]QUINOLINE [76180-96-6], Dose [Inhibitor]: 0, 0.01% (W/V BASED ON TOTAL CHLORINS) IN DRINKING WATER BEGINNING 1 WK POST CARCINOGEN TREATMENT FOR THE DURATION STUDY, Route [Inhibitor]: ORAL, Species: RAT, Strain/Sex: F344/MALE, Target Tissue: Type of Lesion: ZYMBAL'S GLAND: TUMOR, Dose [Carcinogen]: 0.03% IN DIET FOR FIRST 5 WK (STUDY DURATION: 52 WK), Promoter: NONE): 5/22 (23%), 5/20 (25%), -9%, not significant
tumour outcome (control, treated, inhibition, significance) (Carcinogen: 2-AMINO-3-METHYLIMIDAZO[4,5-F]QUINOLINE [76180-96-6], Dose [Inhibitor]: 0, 0.1% (W/V BASED ON TOTAL CHLORINS) IN DRINKING WATER BEGINNING 1 WK POST CARCINOGEN TREATMENT FOR THE DURATION STUDY, Route [Inhibitor]: ORAL, Species: RAT, Strain/Sex: F344/MALE, Target Tissue: Type of Lesion: COLON: TUMOR, Dose [Carcinogen]: 0.03% IN DIET FOR FIRST 5 WK (STUDY DURATION: 52 WK), Promoter: NONE): 2/22 (9%), 2/22 (9%), 0%, not significant
tumour outcome (control, treated, inhibition, significance) (Carcinogen: 2-AMINO-3-METHYLIMIDAZO[4,5-F]QUINOLINE [76180-96-6], Dose [Inhibitor]: 0, 0.1% (W/V BASED ON TOTAL CHLORINS) IN DRINKING WATER BEGINNING 1 WK POST CARCINOGEN TREATMENT FOR THE DURATION STUDY, Route [Inhibitor]: ORAL, Species: RAT, Strain/Sex: F344/MALE, Target Tissue: Type of Lesion: LIVER: TUMOR, Dose [Carcinogen]: 0.03% IN DIET FOR FIRST 5 WK (STUDY DURATION: 52 WK), Promoter: NONE): 16/22 (73%), 8/22 (36%), 51%, p<0.05
tumour outcome (control, treated, inhibition, significance) (Carcinogen: 2-AMINO-3-METHYLIMIDAZO[4,5-F]QUINOLINE [76180-96-6], Dose [Inhibitor]: 0, 0.1% (W/V BASED ON TOTAL CHLORINS) IN DRINKING WATER BEGINNING 1 WK POST CARCINOGEN TREATMENT FOR THE DURATION STUDY, Route [Inhibitor]: ORAL, Species: RAT, Strain/Sex: F344/MALE, Target Tissue: Type of Lesion: SKIN: TUMOR, Dose [Carcinogen]: 0.03% IN DIET FOR FIRST 5 WK (STUDY DURATION: 52 WK), Promoter: NONE): 7/22 (32%), 8/22 (36%), -12.5%, not significant
outcome (Carcinogen: 2-AMINO-3-METHYLIMIDAZO[4,5-F]QUINOLINE [76180-96-6], Dose [Inhibitor]: 0, 0.1% (W/V BASED ON TOTAL CHLORINS) IN DRINKING WATER BEGINNING 1 WK POST CARCINOGEN TREATMENT FOR THE DURATION STUDY, Route [Inhibitor]: ORAL, Species: RAT, Strain/Sex: F344/MALE, Target Tissue: Type of Lesion: SMALL INTESTINE: TUMOR, Dose [Carcinogen]: 0.03% IN DIET FOR FIRST 5 WK (STUDY DURATION: 52 WK), Promoter: NONE): 0/22 (0%), 0/22 (0%), 0%, not significant
tumour outcome (control, treated, inhibition, significance) (Carcinogen: 2-AMINO-3-METHYLIMIDAZO[4,5-F]QUINOLINE [76180-96-6], Dose [Inhibitor]: 0, 0.1% (W/V BASED ON TOTAL CHLORINS) IN DRINKING WATER BEGINNING 1 WK POST CARCINOGEN TREATMENT FOR THE DURATION STUDY, Route [Inhibitor]: ORAL, Species: RAT, Strain/Sex: F344/MALE, Target Tissue: Type of Lesion: ZYMBAL'S GLAND: TUMOR, Dose [Carcinogen]: 0.03% IN DIET FOR FIRST 5 WK (STUDY DURATION: 52 WK), Promoter: NONE): 5/22 (23%), 3/22 (14%), 39%, not significant
tumour outcome (control, treated, inhibition, significance) (Carcinogen: 7,12-DIMETHYLBENZ[A]ANTHRACENE [57-97-6], Dose [Inhibitor]: 0, 0.5% IN 0.2 ML DMSO-ACETONE (15:85, V/V) 2X/WK FOR 30 WK 10 MIN PRIOR TO PROMOTER DOSE (STUDY DURATION: 31 WK), Route [Inhibitor]: DERMAL, Species: MOUSE, Strain/Sex: ICR/FEMALE, Target Tissue: Type of Lesion: SKIN: PAPILLOMA, Dose [Carcinogen]: 0.2 UMOL ONCE (STUDY DURATION: 31 WK), Promoter: 12-O-TETRADECANOYLPHORBOL-13-ACETATE [16561-29-8]): 100%, 40%, 60%, not calculated
tumour outcome (control, treated, inhibition, significance) (Carcinogen: DIBENZO[A,L]PYRENE [191-30-0], Dose [Inhibitor]: 2052 PPM IN DIET FOR 3 WK BEGINNING 1 WK PRIOR TO FIRST CARCINOGEN DOSE (STUDY DURATION: 11 MONTHS), Route [Inhibitor]: ORAL, Species: FISH, Strain/Sex: SHASTA STRAIN RAINBOW TROUT/MALE,FEMALE, Target Tissue: Type of Lesion: LIVER: TUMOR, Dose [Carcinogen]: 500 PPM IN DIET FOR 2 WK (STUDY DURATION: 11 MONTHS), Promoter: NONE): 61%, 18%, 70%, p<0.001
tumour outcome (control, treated, inhibition, significance) (Carcinogen: DIBENZO[A,L]PYRENE [191-30-0], Dose [Inhibitor]: 2052 PPM IN DIET FOR 3 WK BEGINNING 1 WK PRIOR TO FIRST CARCINOGEN DOSE (STUDY DURATION: 11 MONTHS), Route [Inhibitor]: ORAL, Species: FISH, Strain/Sex: SHASTA STRAIN RAINBOW TROUT/MALE,FEMALE, Target Tissue: Type of Lesion: STOMACH: TUMOR, Dose [Carcinogen]: 500 PPM IN DIET FOR 2 WK (STUDY DURATION: 11 MONTHS), Promoter: NONE): 91%, 34%, 63%, p<0.001
tumour outcome (control, treated, inhibition, significance) (Carcinogen: DIBENZO[A,L]PYRENE [191-30-0], Dose [Inhibitor]: 2052 PPM IN DIET FOR 3 WK BEGINNING 1 WK PRIOR TO FIRST CARCINOGEN DOSE (STUDY DURATION: 11 MONTHS), Route [Inhibitor]: ORAL, Species: FISH, Strain/Sex: SHASTA STRAIN RAINBOW TROUT/MALE,FEMALE, Target Tissue: Type of Lesion: SWIM BLADDER: TUMOR, Dose [Carcinogen]: 500 PPM IN DIET FOR 2 WK (STUDY DURATION: 11 MONTHS), Promoter: NONE): 53%, 3%, 94%, p<0.001
tumour outcome (control, treated, inhibition, significance) (Carcinogen: DIBENZO[A,L]PYRENE [191-30-0], Dose [Inhibitor]: 4000 PPM IN DIET FOR 5 WK BEGINNING 1 WK PRIOR TO FIRST CARCINOGEN DOSE (STUDY DURATION: 9 MONTHS), Route [Inhibitor]: ORAL, Species: FISH, Strain/Sex: SHASTA STRAIN RAINBOW TROUT/MALE,FEMALE, Target Tissue: Type of Lesion: LIVER: TUMOR, Dose [Carcinogen]: 200 PPM IN DIET FOR 4 WK (STUDY DURATION: 9 MONTHS), Promoter: NONE): 36%, 13%, 64%, p<0.001
tumour outcome (control, treated, inhibition, significance) (Carcinogen: DIBENZO[A,L]PYRENE [191-30-0], Dose [Inhibitor]: 4000 PPM IN DIET FOR 5 WK BEGINNING 1 WK PRIOR TO FIRST CARCINOGEN DOSE (STUDY DURATION: 9 MONTHS), Route [Inhibitor]: ORAL, Species: FISH, Strain/Sex: SHASTA STRAIN RAINBOW TROUT/MALE,FEMALE, Target Tissue: Type of Lesion: STOMACH: TUMOR, Dose [Carcinogen]: 200 PPM IN DIET FOR 4 WK (STUDY DURATION: 9 MONTHS), Promoter: NONE): 48%, 13%, 73%, p<0.001
tumour outcome (control, treated, inhibition, significance) (Carcinogen: DIBENZO[A,L]PYRENE [191-30-0], Dose [Inhibitor]: 4000 PPM IN DIET FOR 5 WK BEGINNING 1 WK PRIOR TO FIRST CARCINOGEN DOSE (STUDY DURATION: 9 MONTHS), Route [Inhibitor]: ORAL, Species: FISH, Strain/Sex: SHASTA STRAIN RAINBOW TROUT/MALE,FEMALE, Target Tissue: Type of Lesion: SWIM BLADDER: TUMOR, Dose [Carcinogen]: 200 PPM IN DIET FOR 4 WK (STUDY DURATION: 9 MONTHS), Promoter: NONE): 30%, 5%, 83%, p<0.001
outcome (Dose [Inhibitor]: 250 mg/kg chlorophyllin by gavage daily for 10 days (Study duration 18 wk) (Test material solvent: tricaprylin), Route [Inhibitor]: Oral, Species: Rat, Strain/Sex: F344/Male, Target Tissue: Type of Lesion: Liver: GST placental form positive foci. Colon: aberrant crypt foci, Dose [Carcinogen]: 250 ug/kg by gavage daily for 10 days along or in combination with inhibitor (Study duration 18 wk) (Test material solve, Promoter: None): liver: 74% reduction in vol % of liver occupied (p<0.001) colon; 63% reduction i
